Consider one molecule from paper PMC8478281, “Targeting the FtsZ Allosteric Binding Site with a Novel Fluorescence Polarization Screen, Cytological and Structural Approaches for Antibacterial Discovery” (Journal of Medicinal Chemistry, 2021).

As a reminder, the Kd is the concentration at which binding is half-saturated.

Assay [1] deals with T1, FtsZ-GMPCPP polymers (BsFtsZ) (Bacillus subtilis, UniProt P17865).
T1 construct: made in house
As to the kind of experiment: Binding titration of the fluorescent probes to FtsZ polymers by fluorescence anisotropy. Here is the method:
(§1) FtsZ from B. subtilis (BsFtsZ) was prepared as described previously.[35] FtsZ was assembled in 50 mM N-(2-hydroxyethyl)piperazine-N′-ethanesulfonic acid (HEPES)-KOH, 50 mM KCl, 1 mM ethylenediaminetetraacetic acid (EDTA), pH 6.8 (HEPES buffer) plus 10 mM MgCl2, and 1 mM GTP or 0.1 mM GMPCPP at 25 °C. FtsZ assembly was monitored by light scattering.[34]
The fluorescence spectra and anisotropy values of the different probes were acquired with a Fluoromax-4 (Horiba Jobin Yvon) photon-counting L-format spectrofluorometer using 2 mm × 10 mm cells at 25 °C, employing the maximum excitation and emission wavelength for each probe with 2 and 5 nm bandwidths, respectively. Anisotropy values were automatically measured as r = (Ivv – G Ivh)/(Ivv + 2G Ivh), where the subscripts refer to the vertical (v) or horizontal (h) positions of the excitation (first subscript) and emission (second subscript) polarizers, and G = Ihv/Ihh. Total intensity values were simultaneously determined as IT = Ivv +2G Ivh. Note that measurement correction procedures with T-format (double channel) fluorometers and with plate readers are slightly different.
FtsZ (10–15 μM) was assembled in HEPES buffer, 10 mM MgCl2, 50 μM GMPCPP at 25 °C for 10 min, and then 0.15% (v/v) glutaraldehyde[36] (distilled grade for microscopy, TAAB Laboratories, U.K.) was added to the solution that was incubated at 25 °C for 10 min more. (This was the minimal glutaraldehyde concentration determined to stabilize FtsZ polymers specifically binding probe 1.) The remains of the cross-linking agent were quenched by adding 60 mM NaBH4, the sample was incubated on ice for 10 min and degassed.[36] Cross-linked polymers were centrifuged for 10 min at 8200g (5000 rpm) and 4 °C in 15 mL Falcon tubes employing a Rotina 380R (Hettich) centrifuge, the supernatant was removed and the pellet was resuspended in the same volume of HEPES buffer, 10 mM MgCl2, containing 5 μM GMPCPP. Fixed FtsZ polymers were active in binding assays after more than 2 days at 4 °C; they could also be frozen in liquid nitrogen with a small loss of binding capacity. […] Cross-linked polymers of SaFtsZ were similarly prepared.
Binding affinity of the probes to FtsZ was measured by an increase in anisotropy of the probe (adapted from ref ([49])). Fixed concentrations of the probes (3 μM) were titrated with different FtsZ polymer concentrations (0–40 μM) in HEPES buffer with Mg^2+, to obtain the anisotropy increment, Δrmax, corresponding to the bound probe. The increase in anisotropy was plotted against the FtsZ polymer concentration (calculated by subtracting from the total protein concentration the critical concentration for polymerization under the same conditions) and iteratively least-squares fitted with an isotherm of binding to one site. The estimated values of Δrmax were used to approximate the free FtsZ concentrations, and these new values were employed again until an unchanging Δrmax value was obtained. The convergent data were used to calculate the binding constant of the fluorescent probe to FtsZ polymers (Table S1).
For orientation: Polarisation of emitted light reports the rotation of a fluorescent probe.

The target of the next assay is T2, BsFtsZ (Bacillus subtilis, UniProt P17865).
T2 construct: made in house
As to the kind of experiment: Fluorescence anisotropy of probes after consecutive additions of FtsZ, GMPCPP, MgCl2 and PC190723. It counts as binding. Here is the method: (A) Fluorescence anisotropy values of the free probes (10 μM) in buffer, to which FtsZ (10 μM, unassembled) was added, followed by the slowly hydrolyzable GTP analogue GMPCPP (0.1 mM). BsFtsZ polymerization was then induced by the addition of MgCl2 (10 mM) and anisotropy values were recorded 5–10 min later. Nonfluorescent PC190723 (10 μM) was subsequently added to displace the fluorescent probe and anisotropy was measured 5 min later. (B) Fluorescence microscopy images of B. subtilis cells treated for 1.5 h with the minimal division inhibitory concentrations (MDC) of (S)-2 and each enantiomer of 5 (Table S1), acquired employing the probe fluorescence.
as §1

The test system of another assay is B. subtilis. The experiment in a line: Minimal growth inhibitory concentration (broth macrodilution), B. subtilis. It counts as cell-based, Bacillus subtilis. Conditions: Table S1, fluorescent probes. An outline of the steps: (§2)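 Strains grown in cation-adjusted Mueller–Hinton broth at 37 °C (B. subtilis SU570 at 30 °C) to A600 0.1–0.2, then exposed to compounds or DMSO. MIC by broth macrodilution; division phenotype assessed by microscopy and cell measurement.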

A further assay concerns S. aureus Mu50. As to the kind of experiment: Minimal growth inhibitory concentration (broth macrodilution), S. aureus Mu50. It counts as cell-based, Staphylococcus aureus. An outline of the steps: as §2
In assay [2] the target is T3, glutaraldehyde-stabilized FtsZ polymers (Bacillus subtilis, UniProt P17865).
T3 construct: made in house
The experiment in a line: Stoichiometry of probe binding by polymer pelleting (centrifugation assay). Here is the method: The stoichiometry of binding of (R)-5 to stabilized FtsZ polymers was measured using a centrifugation assay adapted from ref ([49]). Then, FtsZ polymers (10 μM) were incubated at 25 °C in HEPES buffer, 10 mM MgCl2, 2% DMSO, and 0.1 mM GMPCPP at 25 °C in the presence of different probe concentrations, in a final volume of 0.1 mL. The samples were then centrifuged for 20 min at 100 000 rpm and 25 °C in a TLA-100 rotor. After centrifugation, the supernatant was carefully withdrawn and the pellets were resuspended in the same volume of buffer. The concentration of the free probe was determined spectrophotometrically in the supernatant, employing an extinction coefficient ε483 = 25 400 M^–1 cm^–1 for (R)-5 and the concentration of probe bound to FtsZ was calculated as the difference of the known total concentration of probe minus the free concentration. To calculate the FtsZ polymer concentration, 5 μL of the resuspended pellet was applied to sodium dodecyl sulfate (SDS)-12% polyacrylamide gels, stained with Coomassie blue, scanned with a CS-800 calibrated densitometer (BioRad), and the protein bands quantified using Quantity One software (BioRad).

[3] abbreviates: FtsZ-GMPCPP polymers, best fit values from binding titrations.
The mark [4] stands for this setting: binding to stabilized FtsZ polymers.

≈ marks a conversion by molar mass, not a printed value.

T2 sequence (P17865 whole entry): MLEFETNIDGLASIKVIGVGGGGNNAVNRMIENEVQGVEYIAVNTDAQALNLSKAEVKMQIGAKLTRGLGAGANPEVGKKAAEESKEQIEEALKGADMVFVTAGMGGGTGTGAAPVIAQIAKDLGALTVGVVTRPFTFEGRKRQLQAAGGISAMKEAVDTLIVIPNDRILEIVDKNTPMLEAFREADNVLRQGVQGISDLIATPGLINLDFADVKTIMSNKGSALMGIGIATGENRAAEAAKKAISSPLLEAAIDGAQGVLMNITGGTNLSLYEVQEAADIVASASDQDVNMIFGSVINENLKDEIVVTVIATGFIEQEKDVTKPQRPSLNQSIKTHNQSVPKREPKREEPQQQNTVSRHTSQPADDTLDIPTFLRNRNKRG
T1 sequence (P17865 whole entry): as above
T3 sequence (P17865 whole entry): as above

Consider `CCC[C@H](COc1ccc(F)c(C(N)=O)c1F)Nc1ccc([N+](=O)[O-])c2nonc12` [(R)-5], for which, in assay [1] (setting [3]), the Imax/Imin was 6.2, the “rmax (all probe bound)” value worked out at 0.272, the “rmin (free probe)” value is given as 0.029 and the Kd amounted to 1900 ± 600 nM. In assay [1] (setting [4]), the equilibrium dissociation constant (Kd) turned out to be 2000 ± 500 nM, the Imax/Imin worked out at 5.0, the “rmax (all probe bound)” value came to 0.268 and the “rmin (free probe)” value is recorded as 0.029. On BsFtsZ (data from Fig. 5A), the “Fluorescence anisotropy (r): + PC190723” value turned out to be 0.052. Moreover, the “Fluorescence anisotropy (r): free probe” value at BsFtsZ (probe 10 μM in buffer) came to 0.029. At BsFtsZ (probe 10 μM, FtsZ 10 μM), the “Fluorescence anisotropy (r): + FtsZ (unassbld.)” value amounted to 0.041. In addition, the “Fluorescence anisotropy (r): + GMPCPP” value on BsFtsZ (probe 10 μM, FtsZ 10 μM, GMPCPP 0.1 mM) came to 0.040. The “Fluorescence anisotropy (r): + MgCl2 (polymer)” value at BsFtsZ (probe 10 μM, FtsZ 10 μM, GMPCPP 0.1 mM, MgCl2 10 mM, 5–10 min) was determined as 0.227. In addition, the MIC B. subtilis in the assay on B. subtilis was found to be 25 µM (≈ 10.5 µg/mL). The “effect on growth of S. aureus Mu50, in words” value with S. aureus Mu50 (250 µM) is “partially inhibited growth”. Besides, the MIC S. aureus Mu50 in the assay on S. aureus Mu50 (Table S1, fluorescent probes) is over 250 µM. In addition, the “stoichiometry of probe binding” value in assay [2] is reported as 0.6 molecules per FtsZ monomer.
